Experimental findings from ChEMBL document CHEMBL5579815, “Novel angiogenesis inhibitors with superoxide anion radical amplification effect: Surmounting the Achilles' heels of angiogenesis inhibitors and photosensitizers” (Eur J Med Chem, 2024) are described below.

Series [1] in a line: Induction of ROS generation in methanol solution assessed as increase in singlet oxygen level by measuring reduction in ABDA absorption peak at 10 uM irradiated with 650 nm 10 mW/cm2 light for upto 9 mins by ABDA probe based UV-vis absorption spectra analysis. The class given is functional.
Series [2] relates to SK-MEL-28. Briefly: Cytotoxicity against human SK-MEL-28 cells assessed as reduction in cell viability preincubated for 24 hrs under normoxic condition followed by media removal and irradiated with 650 nm 10 mW/cm2 light for 15 mins under normoxic condition prior to media replacement and measured after 24 hrs by MTT assay. The class given is functional, cell-based. The settings on record: SK-MEL-28, light or radiation study. (In general: Tetrazolium assays rely on reduction of a dye to a coloured formazan, in cell work by metabolically active cells.)

The test system of a further series is A549. Briefly: Cytotoxicity against human A549 cells assessed as reduction in cell viability at 0.008 to 1 uM preincubated for 24 hrs under hypoxic condition followed by media removal and irradiated with 650 nm 10 mW/cm2 light for 15 mins under hypoxic condition prior to media replacement and measured after 24 hrs by MTT assay. The class given is functional, cell-based. Conditions: dose 0.008-1 µM.

The test system of series [3] is U-87 MG. In words: Cytotoxicity against human U87 cells assessed as reduction in cell viability at 0.008 to 1 uM preincubated for 24 hrs under normoxic condition followed by media removal and irradiated with 650 nm 10 mW/cm2 light for 15 mins under normoxic condition prior to media replacement and measured after 24 hrs by MTT assay. The class given is functional, cell-based. Conditions: U-87MG ATCC, dose 0.008-1 µM.

For series [4], the system named is U-87 MG. Briefly: Cytotoxicity against human U87 cells assessed as reduction in cell viability at 0.008 to 1 uM preincubated for 24 hrs under hypoxic condition followed by media removal and irradiated with 650 nm 10 mW/cm2 light for 15 mins under hypoxic condition prior to media replacement and measured after 24 hrs by MTT assay. The class given is functional, cell-based. Conditions: U-87MG ATCC, dose 0.008-1 µM.

Series [5] deals with EA.hy 926. Briefly: Antiangiogenic activity in human EA.hy 926 cells assessed as reduction in cell viability at 0.008 to 1 uM preincubated for 24 hrs under normoxic condition followed by media removal and irradiated with 650 nm 10 mW/cm2 light for 15 mins under normoxic condition prior to media replacement and measured after 24 hrs by MTT assay. The class given is functional, cell-based. Conditions: dose 0.008-1 µM.

For series [6], the system named is EA.hy 926. Briefly: Antiangiogenic activity in human EA.hy 926 cells assessed as reduction in cell viability at 0.008 to 1 uM preincubated for 24 hrs under hypoxic condition followed by media removal and irradiated with 650 nm 10 mW/cm2 light for 15 mins under hypoxic condition prior to media replacement and measured after 24 hrs by MTT assay. The class given is functional, cell-based. Conditions: dose 0.008-1 µM.

Series [7] is described as follows: Drug uptake in human SK-MEL-28 cells at 1 uM measured after 24 hrs by flow cytometry. The class given is ADME, cell-based. Conditions: sk-mel-28, 24 h. On the technique in general: A flow cytometer gives signals particle by particle.
Series [8] deals with SK-MEL-28. In words: Induction of ROS generation in human SK-MEL-28 cells at 1 uM incubated for 24 hrs under hypoxic condition prior to DHE addition for 30 mins followed by media removal and irradiated with 650 nm 10 mW/cm2 light for 15 mins under hypoxic condition by DAPI staining based fluorescence microscopy. The class given is functional, cell-based.
The test system of series [9] is SK-MEL-28. Briefly: Induction of apoptosis in human SK-MEL-28 cells assessed as early apoptotic cells at 0.5 uM preincubated for 24 hrs under hypoxic condition followed by media removal and irradiated with 650 nm 10 mW/cm2 light for 15 mins under hypoxic condition by Annexin V-FITC/propidium iodide staining based flow cytometry (reference value: 1.8%). The class given is functional.

In series [10] the test system is SK-MEL-28. In words: Induction of apoptosis in human SK-MEL-28 cells assessed as necrotic cells at 0.5 uM preincubated for 24 hrs under hypoxic condition followed by media removal and irradiated with 650 nm 10 mW/cm2 light for 15 mins under hypoxic condition by Annexin V-FITC/propidium iodide staining based flow cytometry (reference value: 2.63%). The class given is functional.

The test system of series [11] is SK-MEL-28. Briefly: Induction of apoptosis in human SK-MEL-28 cells assessed as viable cells at 1 uM preincubated for 24 hrs under hypoxic condition followed by media removal and irradiated with 650 nm 10 mW/cm2 light for 15 mins under hypoxic condition by Annexin V-FITC/propidium iodide staining based flow cytometry (reference value: 93.62%). Conditions: SK-MEL-28, light or radiation study, read-out: Activity. The class given is functional.

Series [12] has as its system SK-MEL-28. Briefly: Induction of apoptosis in human SK-MEL-28 cells assessed as late apoptotic cells at 1 uM preincubated for 24 hrs under hypoxic condition followed by media removal and irradiated with 650 nm 10 mW/cm2 light for 15 mins under hypoxic condition by Annexin V-FITC/propidium iodide staining based flow cytometry (reference value: 1.95%). The class given is functional.

Series [13] concerns SK-MEL-28. Briefly: Induction of apoptosis in human SK-MEL-28 cells assessed as late apoptotic cells at 2 uM preincubated for 24 hrs under hypoxic condition followed by media removal and irradiated with 650 nm 10 mW/cm2 light for 15 mins under hypoxic condition by Annexin V-FITC/propidium iodide staining based flow cytometry (reference value: 1.95%). The class given is functional.

Series [14] relates to SK-MEL-28. Briefly: Induction of apoptosis in human SK-MEL-28 cells assessed as necrotic cells at 2 uM preincubated for 24 hrs under hypoxic condition followed by media removal and irradiated with 650 nm 10 mW/cm2 light for 15 mins under hypoxic condition by Annexin V-FITC/propidium iodide staining based flow cytometry (reference value: 2.63%). The class given is functional.

Series [15] deals with SK-MEL-28. Briefly: Induction of apoptosis in human SK-MEL-28 cells assessed as early apoptotic cells at 0.5 uM preincubated for 24 hrs under normoxic condition followed by media removal and irradiated with 650 nm 10 mW/cm2 light for 15 mins under normoxic condition by Annexin V-FITC/propidium iodide staining based flow cytometry (reference value: 1.8%). The class given is functional.

Series [16] relates to SK-MEL-28. In words: Induction of apoptosis in human SK-MEL-28 cells assessed as late apoptotic cells at 0.5 uM preincubated for 24 hrs under normoxic condition followed by media removal and irradiated with 650 nm 10 mW/cm2 light for 15 mins under normoxic condition by Annexin V-FITC/propidium iodide staining based flow cytometry (reference value: 1.95%). The class given is functional.

Series [17] concerns SK-MEL-28. In words: Induction of apoptosis in human SK-MEL-28 cells assessed as necrotic cells at 0.5 uM preincubated for 24 hrs under normoxic condition followed by media removal and irradiated with 650 nm 10 mW/cm2 light for 15 mins under normoxic condition by Annexin V-FITC/propidium iodide staining based flow cytometry (reference value: 2.63%). The class given is functional.

Series [18] concerns SK-MEL-28. Briefly: Induction of apoptosis in human SK-MEL-28 cells assessed as early apoptotic cells at 1 uM preincubated for 24 hrs under normoxic condition followed by media removal and irradiated with 650 nm 10 mW/cm2 light for 15 mins under normoxic condition by Annexin V-FITC/propidium iodide staining based flow cytometry (reference value: 1.8%). The class given is functional.

The subject of series [19] is SK-MEL-28. Briefly: Induction of apoptosis in human SK-MEL-28 cells assessed as necrotic cells at 2 uM preincubated for 24 hrs under normoxic condition followed by media removal and irradiated with 650 nm 10 mW/cm2 light for 15 mins under normoxic condition by Annexin V-FITC/propidium iodide staining based flow cytometry (reference value: 2.63%). The class given is functional.

Series [20] deals with SK-MEL-28. In words: Induction of apoptosis in human SK-MEL-28 cells preincubated for 24 hrs under hypoxic condition followed by media removal and irradiated with 650 nm 10 mW/cm2 light for 15 mins under hypoxic condition by Annexin V-FITC/propidium iodide staining based flow cytometry. The class given is functional, cell-based. The settings on record: dose 0.5-2 µM.
Series [21] has as its system SK-MEL-28. In words: Induction of apoptosis in human SK-MEL-28 cells preincubated for 24 hrs under normoxic condition followed by media removal and irradiated with 650 nm 10 mW/cm2 light for 15 mins under normoxic condition by Annexin V-FITC/propidium iodide staining based flow cytometry. The class given is functional, cell-based. Conditions: dose 0.5-2 µM.

The source made the active and inactive calls. The calls are words filed in the database; no cut-off is given here.

For orientation: IC50 means the concentration at which inhibition is half-maximal. Turning to `CCN(CC)c1ccc2nc3c4ccccc4/c(=N\CCCCCCNC(=O)c4cc(Oc5ccc(NC(=O)Nc6ccc(Cl)c(C(F)(F)F)c6)cc5)ccn4)cc-3sc2c1`, the result in series [1] was inactive. Moreover, in the series with SK-MEL-28 [2], the IC50 amounted to 100 nM. In addition, the result in the series on A549, in the series on U-87 MG [3], in the series on U-87 MG [4], in the series with EA.hy 926 [5], in the series with EA.hy 926 [6] and in the series on SK-MEL-28 [8] was Active. The Drug uptake result in series [7] is reported as “Active”. In addition, the Activity with SK-MEL-28 [9] was 3.13%; in the series with SK-MEL-28 [10], 11.5%; in the series on SK-MEL-28 [12], 7.57%; with SK-MEL-28 [13], 17.67%; with SK-MEL-28 [14], 18.77%; with SK-MEL-28 [15], 12.86%. The Activity with SK-MEL-28 [16] was 2.86%; in the series on SK-MEL-28 [17] it was 11.1%; with SK-MEL-28 [18] it was 3.59%; with SK-MEL-28 [19], 6.54%; with SK-MEL-28 [20], “Dose-Dependent Effect”; in the series with SK-MEL-28 [21], “Dose-Dependent Effect”. Further, the viability at 1 µM in the series on SK-MEL-28 [11] was found to be 69%.
